These results are taken from US10716829B2, “Method and composition for treatment of hair loss” (NATIONAL HEALTH RESEARCH INSTITUTES, priority 2015, dated 2020).

The structures appear in SMILES notation.

This assay relates to bulge keratinocytes (CD34+α6+). The assay is described as follows: Colony forming assay on sorted CD34+α6+ bulge keratinocytes in absence or presence of DAPT. The class given is cell-based, mouse. The following applies: 10 μM for 7 days, cultured with feeders, vs DMSO-treated cultures; keratinocytes from 8-week-old wild type mice. How it is done:
FIG. 5 is a graph showing quantification of a colony forming assay on sorted CD34+α6+ keratinocytes in the absence or presence of DAFT. Equal numbers of sorted CD34±α6+ keratinocytes from 8-week-old wild type mice were cultured with feeders and treated with either DMSO as a vehicle control or 10 μM DAFT for 7 days. […] P<0.05, **:P<0.01.
We investigated whether the DSB signal seen in Pofut1/Tgfb3-Cre hair follicles was caused by aberrant cell proliferation, which has been reported in the case of oncogene-induced DNA damage checkpoint responses. To test this hypothesis, bulge keratinocytes were isolated from 8 weeks old wild type mice by FACS and cultured in the absence or presence of a γ-secretase inhibitor DAPT (Notch signaling inhibitor).

Consider `C[C@H](NC(=O)Cc1cc(F)cc(F)c1)C(=O)N[C@H](C(=O)OC(C)(C)C)c1ccccc1` [DAPT], for which the numbers of colonies result is “increases” and the size of colonies result is “increases”.
